Assay results published in US5491172A, “N-acyl sulfamic acid esters (or thioesters), N-acyl sulfonamides, and N-sulfonyl carbamic acid esters (or thioesters) as hypercholesterolemic agents” (Warner-Lambert Company, priority 1994, dated 1996).
Where a name gives a salt, the structure may show the parent alone.

Key:
[1] = in vivo screen APCC: blood cholesterol in rats fed overnight a high fat, high cholesterol (PCC) diet; conditions: male Sprague-Dawley rats, dosed at 4 PM, PCC diet with 0.5% cholic acid overnight, blood sampled 8 AM, dose not given
Excerpt: In one in vivo screen designated APCC, male Sprague-Dawley rats (200 to 225 g) were randomly divided into treatment groups and dosed at 4 PM with either vehicle (CMC/Tween) or suspensions of compounds in vehicle. The normal chow diet was then replaced with a high fat, high cholesterol diet (designated PCC) containing 0.5% cholic acid. The rats consumed this diet ad libitum during the night and were sacrificed at 8 AM to obtain blood samples for cholesterol analysis using standard procedures. Statistical differences between mean cholesterol values for the same vehicle were determined using analysis of variance followed by Fisher's least significant test.

[2] = target: acyl-CoA:cholesterol acyltransferase (ACAT); assay: in vitro ACAT inhibition (LAI): radiolabeled cholesterol oleate formed from radiolabeled oleic acid in rat liver microsomes; type: biochemical; conditions: concentration required to inhibit enzyme activity by 50%
Method: The ability of representative compounds of the present invention to inhibit ACAT was measured using an in vitro test more fully described in Field FJ, Salone RG, Biochemica et Biophysica, 1982;712:557-570. The test assesses the ability of a test compound to inhibit the acylation of cholesterol by oleic acid by measuring the amount of radiolabeled cholesterol oleate formed from radiolabeled oleic acid in a tissue preparation containing rat liver microsomes.

| SMILES | % Change (mg/dl) in cholesterol [1] | IC50 [2] [µM] | IC50 ([2]; sodium salt) [µM] | % Change (mg/dl) in cholesterol ([1]; sodium salt) [%] |
| --- | --- | --- | --- | --- |
| CC(C)c1cccc(C(C)C)c1OS(=O)(=O)NC(=O)[C@@H]1C[C@H]1c1ccccc1 (relative stereo) [Example 15, sulfamic acid trans-[(2-phenylcyclopropyl)carbonyl]-2,6-bis(1-methylethyl)phenyl ester] | -14% |  |  |  |
| CC(C)c1cccc(C(C)C)c1CC(=O)NS(=O)(=O)Oc1c(C(C)C)cccc1C(C)C [Example 1, sulfamic acid[[2,6-bis(1-methylethyl)phenyl]acetyl]-2,6-bis(1-methylethyl)phenyl ester] | -63% | 9.7 |  |  |
| CC(C)c1cccc(C(C)C)c1CC(=O)NS(=O)(=O)Oc1c(C(C)C)cccc1C(C)C [Example 2, sulfamic acid[[2,6-bis(1-methylethyl)phenyl]acetyl]-2,6-bis(1-methylethyl)phenyl ester sodium salt] |  |  | 12 | -62 |
| CC(C)c1cc(C(C)C)c(OS(=O)(=O)NC(=O)Cc2c(C(C)C)cccc2C(C)C)c(C(C)C)c1 [Example 3, sulfamic acid[[2,6-bis(1-methylethyl)phenyl]acetyl]-2,4,6-tris(1-methylethyl)phenylester] | -79% | 11 |  |  |
| CC(C)c1cccc(C(C)C)c1OS(=O)(=O)NC(=O)CC12CC3CC(CC(C3)C1)C2 [Example 4, sulfamic acid[adamantaneacetyl]-2,6-bis[1-methylethyl]phenyl ester] | -47% | 13 |  |  |
| CC(C)c1cc(C(C)C)c(CC(=O)NS(=O)(=O)Oc2c(C(C)C)cccc2C(C)C)c(C(C)C)c1 [Example 5, Sulfamic acid[[2,4,6-tris(1-methylethyl)phenyl]acetyl]-2,6-bis(1-methylethyl)phenylester] | -73% | 12 |  |  |
| CC(C)c1cc(C(C)C)c(CC(=O)NS(=O)(=O)Oc2c(C(C)C)cccc2C(C)C)c(C(C)C)c1 [Example 6, sulfamic acid[[2,4,6-tris(1-methylethyl)phenyl]acetyl]-2,6-bis(1-methylethyl)phenylester sodium salt] |  |  |  | -75 |
| CC(C)c1cccc(C(C)C)c1OS(=O)(=O)NC(=O)Cc1ccccc1 [Example 7, sulfamic acid(phenylacetyl)-2,6-bis(1-methylethyl)phenyl ester] | -17% | 47 |  |  |
| CC(C)c1cc(C(C)C)c(CC(=O)NS(=O)(=O)Oc2c(C(C)C)cc(C(C)C)cc2C(C)C)c(C(C)C)c1 [Example 8, sulfamic acid[[2,4,6-tris(1-methylethyl)phenyl]acetyl]-2,4,6-tris(1-methylethyl)phenyl ester] | -66% | 21 |  |  |
| CCCCCCCCCC(=O)NS(=O)(=O)Oc1c(C(C)C)cccc1C(C)C [Example 10, sulfamic acid (decanoyl)-2,6-bis(1-methylethyl)phenyl ester] | -26% |  |  |  |
| CCCCCCCCCCCC(=O)NS(=O)(=O)Oc1c(C(C)C)cccc1C(C)C [Example 11, sulfamic acid(dodecanoyl)-2,6-bis(1-methylethyl)phenyl ester] | -8% | > 10 |  |  |
| CC(C)c1cccc(C(C)C)c1OS(=O)(=O)NC(=O)C12CC3CC(CC(C3)C1)C2 [Example 12] | -5% |  |  |  |
| CC(C)c1cccc(C(C)C)c1OS(=O)(=O)NC(=O)CC(c1ccccc1)c1ccccc1 [Example 13, sulfamic acid(1-oxo-3,3-diphenylpropyl)-2,6-bis(1-methylethyl)phenyl ester] | -31% | 25 |  |  |
| CC(C)c1cccc(C(C)C)c1OS(=O)(=O)NC(=O)Cc1c(Cl)cccc1Cl [Example 14, sulfamic acid[2,6-dichlorophenyl(acetyl)]-2,6-bis(1-methylethyl)phenyl ester] | -12% | 33 |  |  |
| COc1ccc(OC)c(CC(=O)NS(=O)(=O)Oc2c(C(C)C)cccc2C(C)C)c1 [Example 16, sulfamic acid[2,5-dimethoxyphenyl(acetyl)]-2,6-bis(1-methylethyl)phenyl ester] | +10% | 36 |  |  |
| COc1cc(OC)c(CC(=O)NS(=O)(=O)Oc2c(C(C)C)cccc2C(C)C)c(OC)c1 [Example 17, sulfamic acid[2,4,6-trimethoxyphenyl(acetyl)]-2,6-bis(1-methylethyl)phenyl ester] | -40% | > 50 |  |  |

| SMILES | % Change (mg/dl) in cholesterol [1] | IC50 [2] [µM] | IC50 ([2]; sodium salt) [µM] | % Change (mg/dl) in cholesterol ([1]; sodium salt) [%] |
| --- | --- | --- | --- | --- |
| Cc1cc(C)c(CC(=O)NS(=O)(=O)Oc2c(C(C)C)cccc2C(C)C)c(C)c1 [Example 18, sulfamic acid[2,4,6-trimethylphenyl(acetyl)]-2,6-bis(1-methylethyl)phenyl ester] | -47% | 22 |  |  |
| CC(C)c1cccc(C(C)C)c1OS(=O)(=O)NC(=O)Cc1cccs1 [Example 19, sulfamic acid[2-thiophenyl(acetyl)]-2,6-bis(1-methylethyl)phenyl ester] | -20% | > 50 |  |  |
| CC(C)c1cccc(C(C)C)c1OS(=O)(=O)NC(=O)Cc1ccsc1 [Example 20, sulfamic acid[3-thiophenyl(acetyl)]-2,6-bis(1-methylethyl)phenyl ester] | -19% | > 50 |  |  |
| COc1ccccc1CC(=O)NS(=O)(=O)Oc1c(C(C)C)cccc1C(C)C [Example 21, sulfamic acid[2-methoxyphenyl(acetyl)]-2,6-bis(1-methylethyl)phenyl ester] | -16% | 55 |  |  |
| CC(C)c1cccc(C(C)C)c1OS(=O)(=O)NC(=O)C(=O)c1ccccc1 [Example 22, sulfamic acid(oxophenylacetyl)-2,6-bis(1-methylethyl)phenyl ester] | -23% | 50 |  |  |
| CC(C)c1cccc(C(C)C)c1OS(=O)(=O)NC(=O)Cc1ccccc1C(F)(F)F [Example 23, sulfamic acid[2-trifluoromethylphenyl(acetyl)]-2,6-bis(1-methylethyl)phenyl ester] | -19% | 12 |  |  |
| CC(C)c1cccc(C(C)C)c1OS(=O)(=O)NC(=O)C(C)c1ccccc1 (stereo not shown) [Example 24, sulfamic acid(1-oxo-2-phenylpropyl)-2,6-bis(1-methylethyl)phenyl ester] | -24% | 26 |  |  |
| CC(C)c1cccc(C(C)C)c1OS(=O)(=O)NC(=O)C(c1ccccc1)C1CCCC1 (stereo not shown) [Example 25, sulfamic acid(cyclopentylphenylacetyl)-2,6-bis(1-methylethyl)phenyl ester] | -71% | 7.2 |  |  |
| CC(C)c1cccc(C(C)C)c1OS(=O)(=O)NC(=O)CC1CCCCC1 [Example 26, sulfamic acid(cyclohexylacetyl)-2,6-bis(1-methylethyl)phenyl ester] | -26% | 28 |  |  |
| CC(C)c1cccc(C(C)C)c1OS(=O)(=O)NC(=O)C(c1ccccc1)c1ccccc1 [Example 27, sulfamic acid(diphenylacetyl)-2,6-bis(1-methylethyl)phenyl ester] | -72% | 12 |  |  |
| CC(C)c1cccc(C(C)C)c1OS(=O)(=O)NC(=O)C(c1ccccc1)(c1ccccc1)c1ccccc1 [Example 28, sulfamic acid(triphenylacetyl)-2,6-bis(1-methylethyl)phenyl ester] | -30% | 6 |  |  |
| CC(C)c1cccc(C(C)C)c1OS(=O)(=O)NC(=O)C1CCc2ccccc2C1 (stereo not shown) [Example 29, sulfamic acid[(1,2,3,4-tetrahydro-2-naphthyl)carbonyl]-2,6-bis(1-methylethyl)phenylester] | -9% | 15 |  |  |
| CC(C)c1cccc(C(C)C)c1OS(=O)(=O)NC(=O)C1(c2ccccc2)CCCC1 [Example 30, sulfamic acid[(1-phenylcyclopentyl)carbonyl]-2,6-bis(1-methylethyl)phenyl ester] | -40% | 4.1 |  |  |
| CCC(C)C(C(=O)NS(=O)(=O)Oc1c(C(C)C)cccc1C(C)C)c1ccccc1 (stereo not shown) [Example 31, sulfamic acid(3-methyl-1-oxo-2-phenylpentyl)-2,6-bis(1-methylethyl)phenyl ester] | -30% | 3.3 |  |  |
| CCC(C(=O)NS(=O)(=O)Oc1c(C(C)C)cccc1C(C)C)c1ccccc1 (stereo not shown) [Example 32, sulfamic acid(1-oxo-2-phenylbutyl)-2,6-bis(1-methylethyl)phenyl ester] | -48% | 8.9 |  |  |
